Laboratory results from publication PMC3805573, “Methylglyoxal Evokes Pain by Stimulating TRPA1” (PLoS ONE, 2013).

Tests used:
[1] = tested on: Trpa1+/+ and Trpa1-/- mice; test: Intraplantar injection, pain-related behaviors; format: in vivo; details: intraplantar 250 nmoles/paw
Method: Data shown are from male and female homozygote Trpa1^− ^/− and Trpa1 ^+/+. The Trpa1-null mice and wild-type littermates were bred from heterozygotic mice provided by Drs. Kelvin Kwan and David Corey (Harvard Medical School, Boston, MA).
Methylglyoxal (250 nmoles in 25 µl saline) was injected subcutaneously into the plantar surface of one of the hind paws using a 50 µl luer-syringe (Hamilton Co.) fitted with a 26-gauge x 3/8 inch intradermal needle. Immediately after injection, mice were placed inside a Perspex chamber and the duration of the pain-related behaviors (licking and biting or flinching and shaking of the injected paw) recorded using a digital stop-watch. Total pain response times over the first 2 minutes were used for analysis as the pain behaviors were largely confined to this period. The glyoxalase 1 inhibitor Sr-p-Bromobenzylglutathione cyclopentyl diester (50 mg/kg) was dissolved in 2% DMSO/20% Tween 80 in saline and administered by intraperitoneal (i.p.) injection (5 ml/kg).

mouse TRPA1 = biological target: T1, mouse TRPA1 (Mus musculus, UniProt Q8BLA8); test: [Ca2+]i-responses in CHO cells expressing mouse TRPA1; format: cell-based; details: CHO cells expressing mouse TRPA1, extracellular application; read-out: EC50, increases in [Ca2+]i
T1 construct: expressed in transfected cells; host or cells: CHO cells
Method: (§1) Untransfected CHO cells and CHO cells expressing mouse or human TRPA1 were grown in MEM Glutamax or AQ medium supplemented with penicillin (100 U/ml), streptomycin (100 µg/ml), and FCS (10%). Plasmids encoding mutated TRPA1 channels were kindly provided by Dr. Ardem Patapoutian. All media, serum and antibiotics were from Invitrogen (Paisley, UK) or Sigma (Poole, UK).
(§2) Cells were loaded with 2 µM Fura-2 AM (Molecular Probes, Paisley, UK) in the presence of 1 mM probenecid for ∼1 hr. The experiments were performed in a physiological saline solution containing (in mM) 140 NaCl, 5 KCl, 10 glucose, 10 HEPES, 2 CaCl2, and 1 MgCl2, buffered to pH 7.4 with NaOH. Compounds were applied to cells by local continuous microperfusion of solution through a fine tube placed in close proximity of the cells studied. Images of a group of cells were captured every 2 sec using 340 and 380 nm excitation wavelengths with emission measured at 520 nm with a microscope based imaging system (PTI, New Jersey). […]
(§3) Changes in intracellular calcium ([Ca^2+]i) in response to agonists were determined in TRPA1 expressing CHO cells and MDCK cells using a Flexstation 3 (Molecular Devices). […] Basal emission ratios (340 nm/380 nm) were measured and changes in ratio determined at various times after compound addition.

TRPA1 = test: Excised inside-out patches, TRPA1 channel activity; format: cell-based; details: inside-out configuration, applied to intracellular face
Method: (§4) DRG neurons and TRPA1 CHO cells were studied under voltage-clamp conditions using an Axopatch 200B amplifier and pClamp 10.0 software (Molecular Devices, Sunnyvale, CA). Except where stated otherwise, whole cell recordings were performed at a holding potential of –60 mV using an extracellular solution with the composition described above for [Ca^2+]i measurements. Borosilicate glass pipettes (2–5 MΩ, 75–80% series resistance compensation) were filled with (in mM) 140 KCl, 1 CaCl2, 2 MgATP, 10 EGTA, and 10 HEPES buffered to pH 7.4 (KOH). Excised inside-out patches were recorded using a Ca^2+-free solution containing (in mM) 140 NaCl, 5 KCl, 1 MgCl2, 10 HEPES and 1 EGTA, pH 7.4 (NaOH) in the pipettes and perfused with 140 KCl, 2 MgATP, 1 EGTA, and 10 HEPES (pH 7.4). DRG neurons were studied using an intracellular solution containing (in mM) 140 CsCl, 1 CaCl2, 2 MgATP, 10 EGTA and 10 HEPES, pH 7.4 (CsOH). Drugs were applied by local microperfusion with a rapid solution changer (RSC-200, Biologic, Claix, France).

MDCK cells = test: [Ca2+]i-measurements in MDCK cells; format: cell-based, Canine
Method: MDCK cells were grown in DMEM (Invitrogen) supplemented with 5% fetal bovine serum, 100 U/ml penicillin and 100 µg/ml streptomycin. […] The experiments were performed in a physiological saline solution containing (in mM) 140 NaCl, 5 KCl, 10 glucose, 10 HEPES, 2 CaCl2, and 1 MgCl2, buffered to pH 7.4 with NaOH. Compounds were applied to cells by local continuous microperfusion of solution through a fine tube placed in close proximity of the cells studied. […] Analyses of emission intensity ratios at 340 nm/380 nm excitation (R, in individual cells) were performed using the ImageMaster suite of software. […] Cells grown in 96 well black walled plates (Costar, Tewksbury, MA) were loaded with Fura 2-AM in the presence of 1 mM probenecid at 37°C for 1–1.5 hours and assays were carried out at 25°C. Basal emission ratios (340 nm/380 nm) were measured and changes in ratio determined at various times after compound addition.

[2] = tested on: human TRPA1 C621S, C641S or C665S; test: [Ca2+]i-responses of human TRPA1 point mutants C621S, C641S, C665S; format: cell-based; details: human TRPA1 single point mutants vs wildtype
Method: as §1, §2, §3

human TRPA1 = biological target: T2, human TRPA1 (Homo sapiens, UniProt O75762); test: [Ca2+]i-responses in CHO cells expressing human TRPA1; format: cell-based; details: CHO cells expressing human TRPA1, extracellular application; read-out: EC50, increases in [Ca2+]i
T2 construct: expressed in transfected cells; host or cells: CHO cells
Method: as §1, §2, §3

DRG neurons = test: Voltage clamp recordings of DRG neurons; format: cell-based, mice; details: -60 mV, 15 µM Ca2+, a proportion of neurons
Method: DRG neurons were prepared from adult male or female mice using methods described previously. Isolated neurons were maintained in MEM AQ (5.6 mM glucose) supplemented with 10% fetal bovine serum, 100 U/ml penicillin, 100 µg/ml streptomycin and 50 ng/ml NGF (Promega, Southampton, UK) for less than 24 hours before experimentation.
as §4

beta cells = test: [Ca2+]i-responses in pancreatic beta cells; format: cell-based, mice; details: MG 0.5 mM (Fig. 7A)
Method: Mouse islets of Langerhans were isolated from the exocrine pancreas by collagenase digestion (1 mg/ml, type XI, Sigma, Poole, UK). Islets were dissociated by 15 min incubation in trypsin (0.5%, Sigma, Poole, UK) followed by trituration through a flame polished glass Pasteur pipette and the islet cells were seeded on glass cover slips.
Cells were loaded with 2 µM Fura-2 AM (Molecular Probes, Paisley, UK) in the presence of 1 mM probenecid for ∼1 hr. The experiments were performed in a physiological saline solution containing (in mM) 140 NaCl, 5 KCl, 10 glucose, 10 HEPES, 2 CaCl2, and 1 MgCl2, buffered to pH 7.4 with NaOH. Compounds were applied to cells by local continuous microperfusion of solution through a fine tube placed in close proximity of the cells studied. Images of a group of cells were captured every 2 sec using 340 and 380 nm excitation wavelengths with emission measured at 520 nm with a microscope based imaging system (PTI, New Jersey). Analyses of emission intensity ratios at 340 nm/380 nm excitation (R, in individual cells) were performed using the ImageMaster suite of software.

untransfected CHO cells = test: [Ca2+]i in untransfected CHO cells; format: cell-based; details: untransfected CHO cells or absence of extracellular Ca2+ (data not shown)
Method: as §1, §2, §3

T2 sequence (O75762 whole entry): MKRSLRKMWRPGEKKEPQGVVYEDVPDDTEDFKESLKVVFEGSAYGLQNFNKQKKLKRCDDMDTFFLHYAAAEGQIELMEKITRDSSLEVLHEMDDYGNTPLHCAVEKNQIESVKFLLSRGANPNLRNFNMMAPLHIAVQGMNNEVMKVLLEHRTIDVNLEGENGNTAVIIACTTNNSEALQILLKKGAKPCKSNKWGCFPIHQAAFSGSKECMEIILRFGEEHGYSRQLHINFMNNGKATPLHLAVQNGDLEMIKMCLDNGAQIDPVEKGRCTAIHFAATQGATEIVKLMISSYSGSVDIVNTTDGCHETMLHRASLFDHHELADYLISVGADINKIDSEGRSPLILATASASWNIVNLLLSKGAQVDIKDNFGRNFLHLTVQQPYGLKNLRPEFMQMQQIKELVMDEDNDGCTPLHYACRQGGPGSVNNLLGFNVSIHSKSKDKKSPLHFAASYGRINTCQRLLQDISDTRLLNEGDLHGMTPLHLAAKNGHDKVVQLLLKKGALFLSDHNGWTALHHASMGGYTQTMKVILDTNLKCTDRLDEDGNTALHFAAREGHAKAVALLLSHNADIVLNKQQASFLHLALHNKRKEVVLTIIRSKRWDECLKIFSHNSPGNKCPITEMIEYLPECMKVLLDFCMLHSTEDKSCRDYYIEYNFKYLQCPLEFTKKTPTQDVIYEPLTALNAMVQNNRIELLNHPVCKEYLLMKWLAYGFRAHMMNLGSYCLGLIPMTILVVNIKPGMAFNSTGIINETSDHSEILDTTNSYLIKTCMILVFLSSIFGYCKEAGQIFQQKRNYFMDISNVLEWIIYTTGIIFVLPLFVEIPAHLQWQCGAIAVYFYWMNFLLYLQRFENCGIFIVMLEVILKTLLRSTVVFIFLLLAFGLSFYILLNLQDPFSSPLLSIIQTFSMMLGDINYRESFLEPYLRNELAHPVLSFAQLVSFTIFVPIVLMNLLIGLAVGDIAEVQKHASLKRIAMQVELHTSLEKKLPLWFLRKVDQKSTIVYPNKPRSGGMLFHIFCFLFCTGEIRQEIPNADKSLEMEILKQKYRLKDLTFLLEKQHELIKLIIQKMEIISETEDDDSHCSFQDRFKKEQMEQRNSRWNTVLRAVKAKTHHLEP
T1 sequence (Q8BLA8 whole entry): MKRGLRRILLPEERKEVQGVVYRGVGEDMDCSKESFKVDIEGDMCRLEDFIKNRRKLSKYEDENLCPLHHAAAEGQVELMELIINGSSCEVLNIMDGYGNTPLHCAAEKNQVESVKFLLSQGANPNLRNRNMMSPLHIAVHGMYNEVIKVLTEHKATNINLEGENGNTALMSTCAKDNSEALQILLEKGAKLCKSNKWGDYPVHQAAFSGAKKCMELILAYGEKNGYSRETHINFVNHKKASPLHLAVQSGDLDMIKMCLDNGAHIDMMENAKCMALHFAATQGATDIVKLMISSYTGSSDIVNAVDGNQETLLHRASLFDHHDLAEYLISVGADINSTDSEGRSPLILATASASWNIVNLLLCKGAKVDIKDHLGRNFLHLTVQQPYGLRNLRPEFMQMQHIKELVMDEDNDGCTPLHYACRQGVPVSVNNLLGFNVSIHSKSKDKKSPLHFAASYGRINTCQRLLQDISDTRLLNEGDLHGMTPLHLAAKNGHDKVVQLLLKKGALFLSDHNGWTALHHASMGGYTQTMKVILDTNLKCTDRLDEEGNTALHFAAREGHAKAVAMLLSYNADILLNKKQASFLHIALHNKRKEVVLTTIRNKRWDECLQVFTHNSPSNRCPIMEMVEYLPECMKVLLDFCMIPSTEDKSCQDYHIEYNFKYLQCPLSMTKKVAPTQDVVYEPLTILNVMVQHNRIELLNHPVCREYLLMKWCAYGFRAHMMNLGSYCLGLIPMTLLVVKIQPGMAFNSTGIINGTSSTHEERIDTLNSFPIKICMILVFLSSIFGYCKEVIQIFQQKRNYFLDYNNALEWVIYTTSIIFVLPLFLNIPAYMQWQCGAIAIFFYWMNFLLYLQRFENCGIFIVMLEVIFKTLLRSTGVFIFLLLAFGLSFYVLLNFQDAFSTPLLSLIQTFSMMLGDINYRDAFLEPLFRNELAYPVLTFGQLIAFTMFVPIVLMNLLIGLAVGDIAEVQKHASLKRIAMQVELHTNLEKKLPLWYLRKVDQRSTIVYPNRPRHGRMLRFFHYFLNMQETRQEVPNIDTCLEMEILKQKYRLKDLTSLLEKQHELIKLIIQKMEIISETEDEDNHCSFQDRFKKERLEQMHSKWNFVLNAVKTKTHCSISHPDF

CC(=O)C=O [MG, methylglyoxal]
pain-related behaviors during 2 min after injection [1]: induced a significant nociceptive response
EC50 (mouse TRPA1): 900 ± 100 µM
EC50 (TRPA1): 74 µM
[Ca2+]i-influx response (MDCK cells; 5 mM): evoked [Ca^2+]i-influx responses
EC50 (MDCK cells; read-out: EC50, [Ca2+]i-responses): 2200 ± 400 µM
effect of substitutions C621S, C641S, C665S on potency of MG [2]: None of these amino acid substitutions affected the potency of MG significantly
EC50 (human TRPA1): 700 ± 200 µM
current in DRG neurons (DRG neurons): evoked robust inward currents
[Ca2+]i-responses in beta cells (beta cells): evoked [Ca^2+]i-responses in a subpopulation of tolbutamide sensitive beta cells
number of MG sensitive cells and response amplitude, Trpa1+/+ vs Trpa1-/- cultures (beta cells): similar
effect on [Ca2+]i (untransfected CHO cells): had no effect
